Measurements published in article PMC11191095, “QSAR Reveals Decreased Lipophilicity of Polar Residues Determines the Selectivity of Antimicrobial Peptide Activity” (ACS Omega, 2024).
≈ marks a conversion by molar mass, not a printed value. Where a SMILES comes first, the peptide text is derived from it.

Assays:
Test in all cases: microbe, parasite or virus in culture
[1] = test system: K. pneumoniae M6; assay type: cell-based, Klebsiella pneumoniae; conditions: for MIC: Klebsiella pneumoniae, M6, 20 h, read-out: Modal MIC
Experimental: (§1) Antimicrobial activity was evaluated against a panel of 18 pathogens consisting of eight Gram-negative strains (E. coli NCTC 12923, E. coli LEC001, Pseudomonas aeruginosa PAO1, P. aeruginosa NCTC 13437, Acinetobacter baumannii ATCC 17978, A. baumannii AYE, Klebsiella pneumoniae M6, K. pneumoniae NCTC 13368), four Gram-positive strains (Staphylococcus aureus ATCC 9144, S. aureus NCTC 13616, S. aureus USA300, S. aureus 1199B) and six fungi (Candida auris TDG 1912, C. albicans NCPF 8018, C. krusei NCPF 3876, C. tropicalis NCPF 8760, and C. parapsilosis NCPF 3209). Pathogens were grown in noncation adjusted Mueller Hinton broth (MHB, for bacteria) or Roswell Park Memorial Institute (RPMI 1640) + 2% glucose (for fungi) at 37 °C with 180 rpm shaking and maintained on solid media (tryptic soy agar for bacteria and Sabouraud dextrose agar for fungi). For an antibiogram, see Suppl.
(§2) The 46 peptides were serially diluted (128 to 2 μg/mL) in media down polypropylene 96-well plates. Bacteria or fungi, diluted from an overnight culture to an OD600 of 0.01, were added to the serially diluted peptides at a 1:1 ratio resulting in a starting cell density of ∼5 × 10^5 CFU/mL. Plates were incubated at 37 °C for 20 h, and the optical density was determined spectrophotometrically at 600 nm. Minimum inhibition concentrations (MICs) were determined from a minimum of three biological repeats and are reported in μg/mL as well as μM. […] The MIC50 or MIC90 is defined as the lowest peptide concentration that results in 50% or 90% growth inhibition over a 20 h treatment period, respectively.

[2] = test system: K. pneumoniae NCTC 13368; assay type: cell-based, Klebsiella pneumoniae; conditions: for MIC: Klebsiella pneumoniae, NCTC13368, 20 h, read-out: Modal MIC
Experimental: as §1, §2

[3] = test system: E. coli NCTC 12923; assay type: cell-based, Escherichia coli; conditions: for MIC: Escherichia coli, NCTC12923, 20 h, read-out: Modal MIC
Experimental: as §1, §2

[4] = test system: E. coli LEC001; assay type: cell-based, Escherichia coli; conditions: for MIC: Escherichia coli, LEC001, 20 h, read-out: Modal MIC
Experimental: as §1, §2

[5] = test system: S. aureus (MRSA) NCTC 13616; assay type: cell-based, Staphylococcus aureus; conditions: for MIC: Staphylococcus aureus, 20 h, read-out: Modal MIC
Experimental: as §1, §2

[6] = test system: S. aureus (MRSA) 1199B; assay type: cell-based, Staphylococcus aureus; conditions: for MIC: Staphylococcus aureus, MRSA, 20 h, read-out: Modal MIC
Experimental: as §1, §2

[7] = test system: S. aureus (MSSA) ATCC 9144; assay type: cell-based, Staphylococcus aureus; conditions: for MIC: Staphylococcus aureus, 20 h, read-out: Modal MIC
Experimental: as §1, §2

[8] = test system: S. aureus (MRSA) USA300; assay type: cell-based, Staphylococcus aureus; conditions: for MIC: Staphylococcus aureus, 20 h, read-out: Modal MIC
Experimental: as §1, §2

[9] = test system: P. aeruginosa PAO1; assay type: cell-based, Pseudomonas aeruginosa; conditions: for MIC: Pseudomonas aeruginosa, PAO1, 20 h, read-out: Modal MIC; for Modal MIC: P. aeruginosa PAO1 (S)
Experimental: as §1, §2

[10] = test system: P. aeruginosa NCTC 13437; assay type: cell-based, Pseudomonas aeruginosa; conditions: for MIC: Pseudomonas aeruginosa, NCTC13437, 20 h, read-out: Modal MIC; for Modal MIC: P. aeruginosa NCTC 13437 (R)
Experimental: as §1, §2

[11] = test system: A. baumannii AYE; assay type: cell-based, Acinetobacter baumannii; conditions: for MIC: Acinetobacter baumannii, 20 h, read-out: Modal MIC
Experimental: as §1, §2

[12] = test system: A. baumannii ATCC 17978; assay type: cell-based, Acinetobacter baumannii; conditions: for MIC: Acinetobacter baumannii, ATCC17978, 20 h, read-out: Modal MIC
Experimental: as §1, §2

[13] = test system: C. glabrata NCPF 8018; assay type: cell-based; conditions: C. glabrata NCPF 8018
Experimental: as §1, §2

[14] = test system: C. krusei NCPF 3876; assay type: cell-based; conditions: C. krusei NCPF 3876; shown in µM
Experimental: as §1, §2

[15] = test system: C. parapsilosis NCPF 3209; assay type: cell-based; conditions: C. parapsilosis NCPF 3209
Experimental: as §1, §2

[16] = test system: C. albicans NCPF 3281; assay type: cell-based; conditions: C. albicans NCPF 3281
Experimental: as §1, §2

[17] = test system: C. tropicalis NCPF 8760; assay type: cell-based; conditions: C. tropicalis NCPF 8760; shown in µM
Experimental: as §1, §2

[18] = test system: C. auris TDG 1912; assay type: cell-based, Candida auris; conditions: C. auris TDG 1912
Experimental: as §1, §2

[19] = 50% growth inhibition, RPMI 1640 + 2% glucose, 37 °C, 20 h
[20] = 90% growth inhibition, RPMI 1640 + 2% glucose, 37 °C, 20 h
[21] = MHB, 37 °C, 20 h, OD600, min. three biological repeats

Compound: CC(C)(O/N=C(\C(=O)N[C@@H]1C(=O)N2C(C(=O)[O-])=C(C[n+]3ccccc3)CS[C@H]12)c1csc(N)n1)C(=O)O [Ceftazidime, reference compound]
- MIC [1]: < 0.5 µg/mL
- MIC [2]: 512 µg/mL (≈ 937 µM)
- MIC [3]: ≤ 0.125 µg/mL
- MIC [4]: 128 µg/mL (≈ 234 µM)
- MIC [5]: 128 µg/mL (≈ 234 µM)
- MIC [6]: 8 µg/mL (≈ 14.6 µM)
- MIC [7]: 16 µg/mL (≈ 29.3 µM)
- MIC [8]: 32 µg/mL (≈ 58.5 µM)
- MIC [9]: 1 µg/mL (≈ 1.83 µM)
- MIC [10]: > 128 µg/mL
- MIC [11]: > 128 µg/mL
- MIC [12]: < 0.5 µg/mL

Compound: O=C(O)c1cn(C2CC2)c2cc(N3CCNCC3)c(F)cc2c1=O [Ciprofloxacin, reference compound]
- MIC [1]: < 0.5 µg/mL
- MIC [2]: 0.5 µg/mL (≈ 1.51 µM)
- MIC [3]: ≤ 0.125 µg/mL
- MIC [4]: 32 µg/mL (≈ 96.6 µM)
- MIC [5]: 64 µg/mL (≈ 193 µM)
- MIC [6]: 8 µg/mL (≈ 24.1 µM)
- MIC [7]: 1 µg/mL (≈ 3.02 µM)
- MIC [8]: 64 µg/mL (≈ 193 µM)
- MIC [9]: 0.5 µg/mL (≈ 1.51 µM)
- MIC [10]: 64 µg/mL (≈ 193 µM)
- MIC [11]: 128 µg/mL (≈ 386 µM)
- MIC [12]: 0.5 µg/mL (≈ 1.51 µM)

Compound: CC[C@H](C)[C@H](NC(=O)[C@H](C)NC(=O)CNC(=O)[C@H](C)NC(=O)[C@H](CCCCN)NC(=O)[C@H](CO)NC(=O)[C@H](C)NC(=O)[C@H](CCSC)NC(=O)CN)C(=O)N[C@@H](C)C(=O)NCC(=O)N[C@@H](CCCCN)C(=O)N[C@H](C(=O)N[C@@H](C)C(=O)N[C@@H](CCCCN)C(=O)N[C@H](C(=O)N[C@@H](C)C(=O)N[C@@H](CC(C)C)C(=O)N[C@@H](CCCCN)C(=O)N[C@@H](C)C(=O)N[C@@H](CC(C)C)C(N)=O)C(C)C)[C@@H](C)CC [DRAMP02272a] (H-GMASKAGAIAGKIAKVALKAL-NH2)
- Modal MIC ([1]; K. pneumoniae M6 (S), shown in µM): 16 µM
- Modal MIC ([2]; K. pneumoniae NCTC 13368 (R), shown in µM): 32 µM
- Modal MIC50 [13, 19]: > 128 µg/mL
- Modal MIC90 [13, 20]: > 128 µg/mL
- Modal MIC50 ([13]; shown in µM): > 64 µM
- Modal MIC90 ([13]; shown in µM): > 64 µM
- Modal MIC50 [14]: 64 µM
- Modal MIC90 [14]: 64 µM
- Modal MIC50 [15, 19]: > 128 µg/mL
- Modal MIC90 [15, 20]: > 128 µg/mL
- Modal MIC50 ([15]; shown in µM): > 64 µM
- Modal MIC90 ([15]; shown in µM): > 64 µM
- Modal MIC50 [16, 19]: > 128 µg/mL
- Modal MIC90 [16, 20]: > 128 µg/mL
- Modal MIC50 ([16]; shown in µM): > 64 µM
- Modal MIC90 ([16]; shown in µM): > 64 µM
- Modal MIC50 [17]: 16 µM
- Modal MIC90 [17]: 16 µM
- Modal MIC ([3]; E. coli NCTC 12923 (S), shown in µM): 2 µM
- Modal MIC ([4]; E. coli LEC001 (R), shown in µM): 4 µM
- Modal MIC ([5]; S. aureus (MRSA) NCTC 13616 (R), shown in µM): 8 µM
- Modal MIC ([6]; S. aureus (MRSA) 1199B (R), shown in µM): 32 µM
- Modal MIC ([7]; S. aureus (MSSA) ATCC 9144 (S), shown in µM): 4 µM
- Modal MIC ([8]; S. aureus (MRSA) USA300 (R), shown in µM): 16 µM
- Modal MIC [9, 21]: > 128 µg/mL
- Modal MIC ([9]; shown in µM): > 64 µM
- Modal MIC [10, 21]: > 128 µg/mL
- Modal MIC ([10]; shown in µM): > 64 µM
- Modal MIC50 ([18]; 50% growth inhibition, RPMI 1640 + 2% glucose, 37 °C, 20 h, OD600): > 128 µg/mL
- Modal MIC90 ([18]; 90% growth inhibition, RPMI 1640 + 2% glucose, 37 °C, 20 h, OD600): > 128 µg/mL
- Modal MIC50 ([18]; shown in µM): > 64 µM
- Modal MIC90 ([18]; shown in µM): > 64 µM
- Modal MIC ([11]; A. baumannii AYE (R), shown in µM): 1 µM
- Modal MIC ([12]; A. baumannii ATCC 17978 (S), shown in µM): 2 µM
